According to US20170307640A1, “METHODS, KITS AND DEVICES FOR DETECTING BII-SPECTRIN, AND BREAKDOWN PRODUCTS THEREOF, AS BIOMARKERS FOR THE DIAGNOSIS OF NEURAL INJURY” (BANYAN BIOMARKERS, INC., priority 2012, published 2017):
Entries after “also recorded” stand apart in the source; their conditions may differ.

B1: Calpain: purified protease human calpain-2 (BD Bioscience; Catalogue no. 208715) (protein, UniProt P17655 20-700, looked up)
Calpain-2 catalytic subunit: SHDRAIKYLNQDYEALRNECLEAGTLFQDPSFPAIPSALGFKELGPYSSKTRGIEWKRPTEICADPQFIIGGATRTDICQGALGDCWLLAAIASLTLNEEILARVVPLNQSFQENYAGIFHFQFWQYGEWVEVVVDDRLPTKDGELLFVHSAEGSEFWSALLEKAYAKINGCYEALSGGATTEGFEDFTGGIAEWYELKKPPPNLFKIIQKALQKGSLLGCSIDITSAADSEAITFQKLVKGHAYSVTGAEEVESNGSLQKLIRIRNPWGEVEWTGRWNDNCPSWNTIDPEERERLTRRHEDGEFWMSFSDFLRHYSRLEICNLTPDTLTSDTYKKWKLTKMDGNWRRGSTAGGCRNYPNTFWMNPQYLIKLEEEDEDEEDGESGCTFLVGLIQKHRRRQRKMGEDMHTIGFGIYEVPEELSGQTNIHLSKNFFLTNRARERSDTFINLREVLNRFKLPPGEYILVPSTFEPNKDGDFCIRVFSEKKADYQAVDDEIEANLEEFDISEDDIDDGFRRLFAQLAGEDAEISAFELQTILRRVLAKRQDIKSDGFSIETCKIMVDMLDSDGSGKLGLKEFYILWTKIQKYQKIYREIDVDRSGTMNSYEMRKALEEAGFKMPCQLHQVIVARFADDQLIIDFDNFVRCLVRLETLFKIFKQLDPENTGTIELDLISWLCFSVL

How the values were obtained:
αII-spectrin = αII-spectrin breakdown pattern in challenged cerebrocortical cultures with or without inhibitors (Western blot); assay type: cell-based, rat; conditions: for αII-spectrin fragments (SBDP-150/SBDP-145, SBDP-120) after NMDA challenge with respective protease inhibitor: 300 μM NMDA + 30 μM SNJ-1945 or 20 μM IDN-6556; for αII-spectrin breakdown products after neurotoxin challenge alone: EDTA, MTX or NMDA alone
Description: (§1) All cultures are prepared in quadruplicate. Cerebrocortical cells harvested from 1-day old Sprague-Dawley rat brains are plated on poly-L-lysine coated 6-well culture plates (Erie Scientific, Portsmouth, N.H., USA) according to a previously cited method (Nath et al., 2000) at a density of 4.36×10^5 cells/mL. Cultures are maintained in Dulbecco's modified Eagle's medium (DMEM) with 10% fetal bovine serum in a humidified incubator in an atmosphere of 10% CO2 at 37° C. After 5 days in culture, the media is changed to DMEM with 5% horse serum. Subsequent media changes are performed three times a week. Experiments are performed on days 10 to 11 in vitro when astroglia have formed a confluent monolayer beneath morphologically mature neurons. All animal studies conform to the guidelines outlined in the Guide for the Care and Use of Laboratory Animals from the National Institutes of Health and were approved by the local IACUC.
(§2) Cells are collected and lysed with the same lysis buffer as described above.
(§3) The neuronal lysates are then centrifuged at 15000 g for 5 min at 4° C. to clear and remove insoluble debris, snap-frozen, and stored at −85° C. until use.
(§4) Protein concentrations of culture lysates are determined by bicinchoninic acid microprotein assays (Pierce Inc, Rockford, Ill., USA) with albumin standards. Protein balanced samples are prepared for sodium dodecyl sulfate-polyacrylamide gel electrophoresis (SDS-PAGE) in […] loading buffer containing 0.25 M Tris (pH 6.8), 0.2 M DTT, 8% SDS, 0.02% bromophenol blue, and 20% glycerol in distilled H2O. Twenty micrograms (20 μg) of protein per lane are routinely resolved by SDS-PAGE on 6% Tris/glycine gels (for spectrin protein) and/or 10-20% Tris/glycine gels for 2 hr at 120 V. Following electrophoresis, separated proteins are laterally transferred to polyvinylidene fluoride (PVDF) membranes in a transfer buffer containing 0.50 M glycine, 0.025 M Tris-HC1 (pH 8.3) and 10% methanol at a constant voltage of 20 V for 2 hr at 4° C. in a semi-dry transfer unit (Bio-Rad, Hercules, Calif.).
(§5) Tissue samples (20 μg) are subjected to electrophoresis, equal volumes of samples for SDS/PAGE are prepared in a 2×-fold loading buffer [0.25 M Tris (pH 6.8), 0.2 M DTT, 8% SDS, 0.02% bromophenol blue and 20% glycerol in distilled H2O]. Gels are run at 120 V for 2 hr in a mini-gel unit (Invitrogen Life). Protein bands are transferred to PVDF membrane on a semi-dry Trans-blot unit (Bio-Rad, Hercules, Calif.) at 20 V for 2 hrs. After electrotransfer, blotting membranes are blocked for 1 hr at ambient temperature in 5% non-fat milk in TBST [20 mM Tris/HCl (pH 7.4), 150 mM NaCl and 0.05% (w/v) Tween-20], then incubated with the primary monoclonal antibody in TBST/5% milk. Primary antibodies to be used include mouse anti all-spectrin (Affinity Res. Prod. Nottingham, UK), mouse monoclonal anti βII-spectrin (BD Transduction Laboratories, USA; cat # 612563) and rabbit anti βIII-spectrin (BETHYL Laboratories, Inc. TX, cat # A310-367A). The blots are then washed 3 times for 15 min with TBST and exposed to biotinylated secondary antibodies (Amersham Biosciences, U.K.) followed by a 30 min incubation with streptavidin-conjugated alkaline phosphatase. Colorimetric development is performed with a one-step 5-bromo-4-chloro-3-indolyl phosphate-reagent (Sigma-Aldrich, St. Louis, Mo.). The molecular weights of intact proteins and their potential BDPs are assessed by running along-side rainbow colored molecular weight standards (Amersham Biosciences, U.K.)
(§6) Rat cerebrocortical cell cultures are prepared as described above and treated with calpain inhibitor SNJ-1945 and caspase-3 inhibitor IDN-6556 along with different neurotoxic paradigms (FIG. 3).

βII-spectrin [1] = test: Effects of calpain and caspase-3 inhibitors on βII-SBDP pattern in challenged cerebrocortical cultures (Western blot); assay type: cell-based, rat; conditions: for βII-SBDP bands after MTX challenge with inhibitor: 0.5 nM MTX 3 hrs + 20 μM IDN-6556 or 30 μM SNJ-1945; for βII-SBDP bands after NMDA challenge with inhibitor: 300 μM NMDA + 20 μM IDN-6556 or 30 μM SNJ-1945; for βII-SBDP bands after EDTA challenge with inhibitor: EDTA + 20 μM IDN-6556 or 30 μM SNJ-1945, pretreated 1 hr
Description: as §1, §2, §3, §4, §5, §6

[2] = test system: rat cerebrocortical cultures; test: Neurotoxin challenges of primary cerebrocortical cultures: morphology and βII-spectrin breakdown by Western blot; assay type: cell-based; conditions: for degeneration in soma and neurites of neuronal cultures under microscope: MTX at 3 hours, STS, EDTA, NMDA at 24 hours, vs untreated control; for βII-SBDP bands after neurotoxin challenge alone (Western blot): NMDA 300 μM, STS 0.5 μM, EDTA 2 mM, MTX 0.5 nM 3 hrs, no inhibitor
Description: as §1, §2, §3, §4, §5
Alternatively, neuronal cultures are treated with staurosporine (STS) for 24 hours or with NMDA. (FIG. 2)

βII-spectrin [3] = test: βII-spectrin proteolytic fragmentation after brain cortex lysate digestion with calpain-2 and caspase-3; assay type: biochemical, rat
Description: as §5, with “Colorimetric development is performed with a one-step 5-bromo-4-chloro-3-indolyl phosphate-reagent (Sigma-Aldrich, St. Louis, Mo.).” left out

Molecule | αII-spectrin fragments (SBDP-150/SBDP-145, SBDP-120) after NMDA challenge with respective protease inhibitor (αII-spectrin) | βII-SBDP bands after MTX challenge with inhibitor (βII-spectrin [1]) | βII-SBDP bands after NMDA challenge with inhibitor (βII-spectrin [1]) | βII-SBDP bands after EDTA challenge with inhibitor (βII-spectrin [1]) | degeneration in soma and neurites of neuronal cultures under microscope [2] | βII-SBDP bands after neurotoxin challenge alone (Western blot) [2] | αII-spectrin breakdown products after neurotoxin challenge alone (αII-spectrin) | also measured
C[C@H](NC(=O)C(=O)Nc1ccccc1C(C)(C)C)C(=O)N[C@@H](CC(=O)O)C(=O)COc1c(F)c(F)cc(F)c1F [IDN-6556] | strongly inhibited | βII-SBDPs of 110 kDa and 85 kDa are observed | much weaker | no βII-SBDPs | – | – | – | αII-spectrin caspase-mediated SBDP-120 after EDTA challenge with inhibitor (αII-spectrin; EDTA + IDN-6556): absence
COCCOCCOC(=O)N[C@@H](CC(C)C)C(=O)N[C@@H](Cc1ccccc1)C(=O)C(=O)NC1CC1 [SNJ-1945] | strongly inhibited | no βII-SBDPs observed | only βII-SBDP-108 kDa band | strong βII-SBDP 108 kDa/weak 80 kDa bands | – | – | – | αII-spectrin calpain-mediated SBDP-145 after MTX challenge with inhibitor (αII-spectrin; MTX + SNJ-1945): absence
CN[C@@H]1C[C@H]2O[C@@](C)([C@@H]1OC)n1c3ccccc3c3c4c(c5c6ccccc6n2c5c31)C(=O)NC4 [STS, staurosporine] | – | – | – | – | significant degeneration | two prominent βII-SBDP bands of 108 kDa and 80 kDa | – | –
C=CC[C@H](C)[C@H](C)C[C@@H](O)[C@H](O)[C@@H]1CC[C@@]2(C)O[C@@]3(C)C[C@@]4(C)O[C@H]5/C=C\C[C@H]6O[C@H]7C[C@H]8O[C@H]9C[C@@]%10(C)O[C@@](C)([C@@H]%11CC[C@H]%12O[C@@]%13(C)C[C@H]%14O[C@@]%15(C)C[C@H]%16O[C@@]%17(C)C[C@@H](O)[C@H]([C@@H]%18O[C@H]%19[C@H](O)[C@@H](O)[C@H](C[C@H](O)C[C@@H](O)[C@@H]%20O[C@H]%21[C@H](O)[C@@H](O)[C@H]([C@@H]%22O[C@@H]%23[C@H](O)[C@H]%24O[C@H]%25C[C@H]%26O[C@@H](C[C@H](O)[C@@H](O)[C@H]%27O[C@H]%28[C@H](O)[C@H]%29O[C@H]%30C[C@H]%31O[C@H]%32[C@@H](O)[C@@H](O)[C@H]([C@H](C)[C@H](O)[C@H](C)CC[C@H](OS(=O)(=O)O)[C@H](O)[C@H](C)C[C@@H](O)C(=C)/C(C)=C/CO)O[C@@H]%32[C@H](O)C[C@]%31(C)O[C@@H]%30C[C@]%29(C)O[C@@H]%28C[C@H]%27O)[C@H](OS(=O)(=O)O)[C@H](O)[C@@H]%26O[C@@H]%25C[C@@H]%24O[C@H]%23[C@H](O)[C@H]%22O)O[C@H]%21C[C@H]%20O)O[C@H]%19C[C@H]%18O)O[C@@H]%17[C@H](O)[C@]%16(C)O[C@@H]%15CC[C@]%14(C)O[C@@H]%13C[C@@H]%12O%11)[C@H](O)C[C@@H]%10O[C@]9(C)CC[C@]8(C)O[C@]7(C)C[C@@H]6O[C@@H]5C[C@@H]4O[C@@H]3C[C@@H]2O1 [MTX, maitotoxin] | – | – | – | – | significant degeneration | strong βII-SBDPs of 110 kDa and 85 kDa bands; also recorded: βII-SBDPs of 110 kDa and 85 kDa are observed | presence of the prominent calpain-mediated SBDP-145 kDa band | βII-SBDPs generated by EDTA and MTX treatments used as controls for apoptotic and necrotic injury (βII-spectrin [3]; brain lysates treated with MTX and EDTA, comparators in FIG. 8): 110/85
CN[C@H](CC(=O)O)C(=O)O [NMDA, N-methyl-D-aspartate] | – | – | – | – | significant degeneration | dominant signal of calpain-mediated βII-spectrin breakdown product (βII-SBDP) of 110 kDa and 85 kDa, with minimal caspase mediated βII-SBDP of 108 kDa and 80 kDa; also recorded: presence of all the βII-SBDPs (110, 108, 85 and 80 kDa) | prominent calpain-mediated SBDP-150/SBDP-145, with minor bands of caspase-3-mediated SBDP-120 | –
B1 | – | – | – | – | – | – | – | βII-SBDPs generated by in vitro protease digestion of cortical tissue lysate (βII-spectrin [3]; intact 260 kDa βII-spectrin, calpain-2 25° C. 30 min, caspase-3 37° C. 4 hrs): prominent 110 and 85 kDa βII-SBDPs in addition to a number of non-specific high molecular bands
